Data taken from PMC5581743, “Synthesis, characterization, anti-ulcer action and molecular docking evaluation of novel benzimidazole-pyrazole hybrids” (Chemistry Central Journal, 2017).

Tested on: ethanol-induced gastric ulcers in rats
Assay: ethanol-induced gastric ulcer model in rats (anti-ulcerogenic activity)
Type: in vivo, Albino rats
Set-up: key to Ulcer index: sum of lesion lengths (mm) per stomach
Conditions: for Ulcer index: mean ± SEM, n = 5; for % Inhibition: versus saline group
Description: Albino rats (weighing 180-220 g) were housed at the animal house of the […] Institute of Pharmaceutical Sciences under controlled environment (23-25 °C). Animals were kept in plastic cages with sawdust (changed at every 48 h) and were fasted for 24 h before starting the experiment. Animals were provided with tap water ad libitum and standard pellet diet. Experiments performed complied with rules of Institute of Laboratory Animal Resources, Commission on Life Sciences University, National Research Council (1996) and were approved by Ethical Committee of […] Institute of Pharmaceutical Sciences, […] International University. Albino rats (180-220 g) of either sex were divided into different groups (n = 5). Animals were fasted for 24 h before the study, but had free access to water. Animals in the control group received only normal saline (10 mL/kg). Compound 5a at doses of 100 and 500 μg/kg, (p. o.) was given to the animals in the treatment group. Same procedure was repeated for Compund 5b, 5c, 5d, 5e and 5f. Omeprazole (30 mg/kg) was used as a standard. The rats were sacrificed 1 h later and the stomach removed and observed for ulcers in the glandular region. The surface area of each lesion was measured and scored by method with described by Tan et al. with some modifications. The ulcer index for each rat was taken as the mean ulcer score (0: no ulcer; 1: US ≤ 0.5 mm^2; 2: 0.5 < US ≤ 2.5 mm^2; 3: 2.5 mm^2 < US ≤ 5 mm^2; 4: 5 mm^2 < US ≤ 10 mm^2; 5: 10 mm^2 < US ≤ 15 mm^2; 6: 15 mm^2 < US ≤ 20 mm^2; 7: 20 mm^2 < US ≤ 25 mm^2; 8: 25 mm^2 < US ≤ 30 mm^2; 9: 30 mm^2 < US ≤ 35 mm^2; 10: US > 35 mm^2). The sum of the length (mm) of all the lesions for each stomach was used as the ulcer index (UI). The percentage of inhibition (% I) was calculated using the following formula: %I=USc-USt×100/USc where USc = ulcer surface area of control and USt = ulcer surface area of test animal. The anti-ulcer activity of all the benzimidazole-pyrazole hybrids 5a-f was tested in vivo by ethanol-induced gastric ulcer model in rats. Rats received test compounds in two different doses; 100 and 500 μg/kg orally. Omeprazole (30 mg/kg) was used as a standard. The rats were sacrificed 1 h later and the stomach removed and observed for ulcers in the glandular region. The surface area of each lesion was measured and scored by method. […] Figure 2 show the gastric mucosa of rats. […] The results clearly indicated the greater anti-ulcer potential of our synthesized compounds as compared to omeprazole, the currently used anti-ulcer drug. […] It was observed that substitution pattern of both the aromatic rings attached to pyrazole ring effect the anti-ulcer activity. The highest activity was shown by compound 5d i.e. 83.1% at 500 μg/kg dose. All the compounds were docked against H^+/K^+ ATPase to assess the binding affinities and compared with Omeprazole which is a known mercapto benzimidazole derivative and H^+/K^+ ATPase inhibitor. […] 5d has maximum binding affinity of -9.8 kcal/mole due to maximum number of hydrogen bonding interactions with the target.

[1] = 100 µg/kg p.o. + ethanol (1 mL/100 g)
[2] = 500 µg/kg p.o. + ethanol (1 mL/100 g)
[3] = 30 mg/kg + ethanol (1 mL/100 g)

Q: With `O=C(CSc1nc2ccccc2[nH]1)n1nc(-c2ccccc2)cc1-c1ccccc1O` [Compound 5a, 2-(1H-benzimidazol-2-ylsulfanyl)-1-[5-(2-hydroxyphenyl)-3-phenyl-1H-pyrazol-1-yl]ethanone] as the compound, how does the Ulcer index [1] read?
A: The Ulcer index was 3.22 ± 0.009.

Q: And the “% Inhibition” value [1]?
A: The value was 35.4%.

Q: And the Ulcer index [2]?
A: The Ulcer index was 1.07 ± 0.008.

Q: And the “% Inhibition” value [2]?
A: The value was 78.5%.

Q: Which results are given for `O=C(CSc1nc2ccccc2[nH]1)n1nc(-c2ccccc2O)cc1-c1ccccc1O` [Compound 5b, 2-(1H-benzimidazol-2-ylsulfanyl)-1-[3,5-bis(2-hydroxyphenyl)-1H-pyrazol-1-yl]ethanone]?
A: Ulcer index [1]: 3.48 ± 0.008; % Inhibition [1]: 30.2%; Ulcer index [2]: 1.26 ± 0.009; % Inhibition [2]: 74.7%

Q: With `COc1ccc(-c2cc(-c3ccccc3O)n(C(=O)CSc3nc4ccccc4[nH]3)n2)cc1O` [Compound 5c, 2-(1H-benzimidazol-2-ylsulfanyl)-1-[5-(2-hydroxyphenyl)-3-(3-hydroxy-4-methoxyphenyl) -1H-pyrazol-1-yl]ethanone] as the compound, how does the Ulcer index [1] read?
A: Its Ulcer index is 3.52 ± 0.009.

Q: And the “% Inhibition” value [1]?
A: The value was 29.4%.

Q: What about the Ulcer index [2] of the same compound?
A: The Ulcer index was 1.48 ± 0.009.

Q: What about the “% Inhibition” value [2] of the same compound?
A: Its value is 70.3%.

Q: How did the Ulcer index [1] turn out when `O=C(CSc1nc2ccccc2[nH]1)n1nc(-c2ccccc2)cc1-c1ccccc1` [Compound 5e, 2-(1H-benzimidazol-2-ylsulfanyl)-1-(3,5-diphenyl-1H-pyrazol-1-yl)ethanone] was run?
A: The Ulcer index was 3.18 ± 0.01.

Q: And the “% Inhibition” value [1]?
A: Its value is 36.2%.

Q: And the Ulcer index [2]?
A: Its Ulcer index is 1.06 ± 0.01.

Q: And the “% Inhibition” value [2]?
A: Its value is 79%.

Q: Which Ulcer index [1] does the source give for `COc1ccc(-c2cc(-c3ccccc3)nn2C(=O)CSc2nc3ccccc3[nH]2)cc1O` [Compound 5f, 2-(1H-benzimidazol-2-ylsulfanyl)-1-[5-(3-hydroxy-4-methoxyphenyl)-3-phenyl-1H-pyrazol-1-yl]ethanone] here?
A: Its Ulcer index is 3.75 ± 0.016.

Q: And the “% Inhibition” value [1]?
A: Its value is 24.8%.

Q: What about the Ulcer index [2] of the same compound?
A: The Ulcer index was 1.39 ± 0.02.

Q: What about the “% Inhibition” value [2] of the same compound?
A: Its value is 72.1%.

Q: For `COc1ccc2[nH]c([S+]([O-])Cc3ncc(C)c(OC)c3C)nc2c1` (centres unmarked) [Omeprazole, reference compound], which Ulcer index [3] is on record?
A: Its Ulcer index is 0.84 ± 0.01.

Q: And the “% Inhibition” value [3]?
A: Its value is 83.1%.

Q: What about the “% Inhibition” value (30 mg/kg + ethanol (1 mL/100 g), listed as omeprazole) of the same compound?
A: The value was 83%.
